Measurements taken from patent US20250009739A1, “METHOD OF TREATING A SKIN DISORDER” (PHAMRI Norden AB, priority 2021, published 2025).

Columns and labels:
[1] = test system: ENaC; conditions: cited from earlier work
[2] = target: NCX (Homo sapiens, UniProt P32418); conditions: cited from earlier work
[3] = human oral dosing 10 mg, adults; cited from earlier work
[4] = test system: CXCL1; assay: CXCL1 expression in TNFα-stimulated primary keratinocytes (Luminex on supernatant); type: cell-based, human; conditions: CXCL1, IL1a and TNFα in TNFα-stimulated keratinocytes; concentration where ENaC, NCX1 and NHE1 were predicted to be targeted
Description: Primary keratinocytes were stimulated with TNFα (5 ng/ml) for 24 hours and expression of pro-inflammatory cytokines involved in inflammatory skin disease was analyzed with benzamil as inhibitor and compared to inhibitors with different affinity to ENaC/NCX1/NHE1 (amiloride), ENaC but not NCX1 and NHE1 (Camostat mesilate), NCX1 but not ENaC or NHE1 (KB-R7943) or NHE but not ENaC or NCX1 (zoniporide).
Primary human keratinocytes were thawed according to manufacturer's instructions, washed in growth medium (GM) and viability assessed via Tryphan blue. Cells were incubated at 37° C. with 5% CO2. After confluence, a stock cell solution of 1.5×10^5 cells/ml was prepared in GM. 200 μL of the cell suspension was added to each well of respective 96 well plates for a total of 3×10^4 cells/well. Cells were incubated at 37° C. with 5% CO2 overnight for adherence. After overnight incubation, cell culture media was removed from each well and 100 μL of fresh GM was added to each well. Appropriate concentrations of inhibitor compound, vehicle and TNFα was prepared in GM of a final volume of 3 ml. […]
100 μl of each treatment was added to appropriate wells. […] 24 hours post TNFα stimulation, the fluorescence of each well was read at 544/590 nm for cell viability. […] The inflammatory cytokines TNFα, CXCL1 and IL1a in the cell culture supernatants were analysed by Luiminex. […]

[5] = test system: Primary human keratinocytes; assay: Proliferation / cell viability (alamar blue) of TNFα-stimulated keratinocytes; type: cell-based; conditions: low-level inflamed keratinocyte conditions (TNFα 5 ng/ml, 24 hours)
Description: Primary human keratinocytes were thawed according to manufacturer's instructions, washed in growth medium (GM) and viability assessed via Tryphan blue. Cells were incubated at 37° C. with 5% CO2. After confluence, a stock cell solution of 1.5×10^5 cells/ml was prepared in GM. 200 μL of the cell suspension was added to each well of respective 96 well plates for a total of 3×10^4 cells/well. Cells were incubated at 37° C. with 5% CO2 overnight for adherence. After overnight incubation, cell culture media was removed from each well and 100 μL of fresh GM was added to each well. Appropriate concentrations of inhibitor compound, vehicle and TNFα was prepared in GM of a final volume of 3 ml. Concentrations of non-benzamil inhibitors were chosen to be 0.1×, 1× and 10× the IC50 for each primary target. […] Concentration of TNF alpha was selected to recapitulate a low level of pro-inflammatory cytokine stimulation.
100 μl of each treatment was added to appropriate wells. Samples were incubated for 24 hours. 20 hours post TNFα stimulation, 20 μL of alamar blue was added for each well. Cells were incubated for 4 hours at 37° C. 24 hours post TNFα stimulation, the fluorescence of each well was read at 544/590 nm for cell viability. […] The inflammatory cytokines TNFα, CXCL1 and IL1a in the cell culture supernatants were analysed by Luiminex. […]

[6] = test system: ENaC; conditions: cited from earlier work; remark: listed apart in the source

## CN(C)C(=O)COC(=O)Cc1ccc(OC(=O)c2ccc(NC(=N)N)cc2)cc1 [Camostat Mesilate, Camostat mesilate]
[1]
  IC50: 50 nM

## N=C(N)SCCc1ccc(OCc2ccc([N+](=O)[O-])cc2)cc1 [KB-R7943]
[2]
  IC50: 5000 to 10000 nM

## N=C(N)NC(=O)c1nc(Cl)c(N)nc1N [amiloride]
[1]
  IC50: 100 nM
[3]
  serum concentration: 20.6 ng/mL

## NC(=NCc1ccccc1)NC(=O)c1nc(Cl)c(N)nc1N [benzamil]
[4]
  efficacious concentration for reducing cytokine expression: above 1 uM
[5]; FIG. 6
  proliferation: does not reduce proliferation
[5]; FIG. 6, listed as Benzamil
  proliferation: did not reduce proliferation

## NC(=Nc1ccccc1)NC(=O)c1nc(Cl)c(N)nc1N [phenamil]
[6]
  in vivo efficacy specifically on ENaC relative to amiloride: equivalent to amiloride
